Reference: patent publication US20260097049A1, “C[…] AND METHODS OF USE FOR TREATMENT AND PREVENTION OF CANCER” (BlackStone Therapeutics, LLC, priority 2022, published 2026)
Values joined by “and” are separate entries in the source; they are usually repeats but may differ in a detail not shown here. Equal values may be shown once. Read-outs that look alike come from different tables or passages of the source.

Tests used:
[1] = system: A549 Lung Carcinoma Epithelial Cells (CCL-185 from ATCC); experiment: Percent viability of lung carcinoma cells; type: cell-based; conditions: Homo sapiens, A549, read-out: Percent viability of cells, Mean (%)
Description: GR-X1=H4CBDV, GR-X2=(R)-H4CBD, GR-X3=(S)-H4CBD, GR-X4=HHC.
The IC50 of the hydrogenated cannabivarin, hexahydrocannabidivarin (H4CBDV), (R)-H4CBD, (S)-H4CBD, HHC racemic mixture, and gemcitabine, paclitaxel, and 5-fluorouracil were determined in lung carcinoma cells (A549 Lung Carcinoma Epithelial Cells (CCL-185 from ATCC)) as shown in FIGS. 39-43 and Table 3.

[2] = Pharmacokinetics in CD1 male mice (plasma, HPLC-MS); type: in vivo; conditions: for MRT inf: read-out: MRTInf—obs; for Vd: read-out: Vss—obs
Description: Formulation and dosing information for pharmacokinetic data is provided in Table 5 (CD=beta-cyclodextrin). The solutions were sonicated, vortexed, and slightly heated resulting in a clear purple liquid.
Pharmacokinetic data was produced by administering CD1 male mice with CCL-104 (H4CBD) or CCL-106 (H4CBDV). Each compound was formulated and administered as shown in Example 3. Plasma was sampled from the IV administered mice at 5 min, 15 min, 30 min, 1 hr, 2 hr, 4 hr post dose. Plasma was sampled from the PO administered mice at 15 min, 30 min, 1 hr, 2 hr, 4 hr, 6 hr post dose. The desired serial concentrations of working solutions were achieved by diluting stock solution of analyte with 50% acetonitrile in water solution. 10 μL of working solutions (0.5, 1, 2, 5, 10, 50, 100, 500, 1000 ng/mL) were added to 10 μL of the blank male CD1 mice plasma to achieve calibration standards of 0.5-1000 ng/mL (0.5, 1, 2, 5, 10, 50, 100, 500, 1000 ng/mL) in a total volume of 20 μL. Six quality control samples at 1 ng/mL, 2 ng/mL, 5 ng/mL, 10 ng/mL, 50 ng/mL and 800 ng/mL for plasma were prepared independently of those used for the calibration curves. These QC samples were prepared on the day of analysis in the same way as calibration standards. 20 μL standards, 20 μL QC samples and 20 μL unknown samples (10 μL plasma with 10 μL blank solution) were added to 200 μL of methanol containing IS mixture for precipitating protein respectively. Then the samples were vortexed for 30 seconds, then centrifuged at 4° C., 4,000 rpm for 15 min. The supernatant was diluted with water at a ratio of 1:2. 15 μL of the diluted supernatant was injected into the LC/MS/MS system for quantitative analysis.

MiaPaca cells xenograft = experiment: Miapaca cell xenograft study; type: in vivo, SCID mice
Description: Animal housing and environment: Female SCID mice will be housed in individually ventilated cages in a controlled environment (temperature 22±2° C., humidity 30-70%, and 12 h light/12 h dark cycle). Acclimatization of animals: Mice will be acclimated for 2-4 days. For the study, the required number of SCID mice will be allocated and housed separately in the experimental area. Food and water for animals: The mice will have access to commercially available sterile feed pellets and sterile potable water ad libitum. Identification of animals: 4 mice will be housed per individually ventilated cage. Each animal in the cage will be identified by ear punch. These cages will be numbered thus making the animal identification easy. Ethical approvals: All animal experiments will be carried out in accordance with the guidelines of the guide for animal welfare and with the approval of the IACUC WSU. Population per group: 9 mice per group (6 for efficacy and 3 for residual tumor analysis).
Miapaca cells were xenograft into the mice. 7 days after transplantation, the mice were untreated (administered a vehicle control), administered CCL-104 intravenously (15.4 mg/kg) or orally (31 mg/kg), or administered CCL-106, intravenously (20 mg/kg) or orally (31 mg/kg). At necropsy, tumors were excised for IHC, immunoblotting and RNA isolation for suppression proliferation related signaling molecules.

[3] = system: PANC-1, HPAF-II, AsPC-1, and MIA-PaCa2; experiment: Cell killing against various cancer cell lines; type: cell-based; conditions: all cancer cells tested
Description: Various compounds, including (R)-H4CBD and (S)-H4CBD, and H4CBDV racemic mixture, were tested for cell killing against various cancer cell lines, including PANC-1, HPAF-II, AsPC-1, and MIA-PaCa2.

[4] = IV 10 mg/kg, individual mouse, 10 mg/kg
[5] = PO 10 mg/kg, individual mouse, 10 mg/kg
[6] = male, CD1, mouse, plasma, iv, 10 mg/kg, IV 10 mg/kg, Mean of 4 mice
[7] = male, CD1, mouse, plasma, iv, 10 mg/kg, IV 10 mg/kg, individual mouse
[8] = male, CD1, mouse, plasma, po, 10 mg/kg, PO 10 mg/kg, Mean of 4 mice
[9] = male, CD1, mouse, plasma, po, 10 mg/kg, PO 10 mg/kg, individual mouse

## CCCc1cc(O)c(C2CC(C)CCC2C(C)C)c(O)c1 (racemic) [CCL-106, hexahydrocannabidivarin]
[1]; agent concentration 1.56 uM
  viability at 1.56 µM: 92.1%
[1]; agent concentration 3.12 uM
  viability at 3.12 µM: 95.2%
[1]; agent concentration 6.25 uM
  viability at 6.25 µM: 93.4%
[1]; agent concentration 12.5 uM
  viability at 12.5 µM: 93.6%
[1]; agent concentration 25 uM
  viability at 25 µM: 21.5%
[1]; agent concentration 50 uM
  viability at 50 µM: 5.65%
[2]; IV 10 mg/kg, Mean of 4 mice
  AUClast/D (h*mg/mL): 184 h*ng/mL per mg/kg
  AUC—% Extrap—obs: 18.4%
  Cl_obs: 74.7 mL/min/kg
[2]; [4]
  AUCInf: 2519 ng·h/mL and 2031 ng·h/mL and 2513 ng·h/mL
  AUClast: 2047 ng·h/mL and 1630 ng·h/mL and 1952 ng·h/mL
  AUC—% Extrap—obs: 12.7% and 18.7% and 19.8% and 22.3%
  C0: 4701 ng/mL and 5792 ng/mL and 5062 ng/mL
  Cl_obs: 84.1 mL/min/kg and 66.2 mL/min/kg and 82.1 mL/min/kg and 66.3 mL/min/kg
  MRTInf—obs: 2.11 h and 2.16 h and 2.49 h
  T1/2: 2.14 h and 2.50 h and 2.99 h
  Vss—obs: 8.38 L/kg and 10.7 L/kg and 9.89 L/kg
[2]; PO 10 mg/kg, Mean of 4 mice
  AUClast/D (h*mg/mL): 31.6 h*ng/mL per mg/kg
  AUC—% Extrap—obs: 25.7%
[2]; [5]
  AUCInf: 404 ng·h/mL and 453 ng·h/mL and 479 ng·h/mL
  AUClast: 308 ng·h/mL and 414 ng·h/mL and 226 ng·h/mL
  AUC—% Extrap—obs: 18.1% and 23.7% and 8.47% and 52.7%
  Cmax: 233 ng/mL and 177 ng/mL and 352 ng/mL and 127 ng/mL
  F (%): 16.7% and 20.0% and 12.3%
  MRTInf—obs: 3.27 h and 4.01 h and 2.21 h and 10.3 h
  T1/2: 3.20 h and 3.31 h and 2.04 h and 8.02 h
[2]; [6]
  AUC(0-inf): 2260 ng·h/mL
  AUC(0-t): 1840 ng·h/mL
  half-life: 2.32 h
  MRT inf: 2.1 h
  Vd: 9.3 L/kg
[2]; male, CD1, mouse, plasma, iv, 10 mg/kg, IV 10 mg/kg, Mean of 4 mice, read-out: C0
  C0: 4820 ng/mL
[2]; [7]
  AUC(0-inf): 1980 ng·h/mL
  AUC(0-t): 1730 ng·h/mL
  half-life: 1.63 h
  MRT inf: 1.62 h
  Vd: 8.18 L/kg
[2]; male, CD1, mouse, plasma, iv, 10 mg/kg, IV 10 mg/kg, individual mouse, read-out: C0
  C0: 3720 ng/mL
[2]; [8]
  AUC(0-inf): 429 ng·h/mL
  AUC(0-t): 316 ng·h/mL
  Tmax: 0.25 h
  bioavailability: 16.5%
  half-life: 4.14 h
  MRT inf: 4.9 h
[2]; male, CD1, mouse, plasma, po, 10 mg/kg, PO 10 mg/kg, Mean of 4 mice, read-out: Cmax
  Cmax: 222 ng/mL
[2]; [9]
  AUC(0-inf): 383 ng·h/mL
  AUC(0-t): 314 ng·h/mL
  Tmax: 0.25 h
  bioavailability: 16.9%
MiaPaca cells xenograft; IV 20 mg/kg
  reduction of final tumor weight (dot graph): 27.0%
  reduction of mean of the final tumor weight (bar graph): 24.2%
MiaPaca cells xenograft; PO 31 mg/kg
  reduction of final tumor weight (dot graph): 50.8%
  reduction of mean of the final tumor weight (bar graph): 50.79%
MiaPaca cells xenograft; treated intravenously or orally, FIGS. 54-55
  tumor size compared to the untreated control: smaller tumors compared to the untreated control
[3]
  cytotoxicity against cancer cells: shows cytotoxicity against all cancer cells tested
